Measurements published in patent publication US20240225981A1, “Synthesized Molecule of Solketal Esters from Palm Kit Oil and Glycerin for Cosmetic and Agricultural Formulations” (BRASIL BIO FUELS S.A, priority 2023, published 2024).
“Also recorded” adds a separate entry of the source.

Experiments:
skin = assay: Skin irritation tests (OECD and GHS); assay type: in vivo; details: OECD and GHS standards; non-irritating in 2 tests, one test mild
Text: Two new batches of cocoyl glyceryl solketal were sent to confirm dermal irritation tests.

eye = assay: Eye irritation tests (OECD and GHS); assay type: in vivo; details: OECD and GHS standards
Text: In eye irritation tests, the product was classified as non-irritating according to OECD and GHS standards.

Substance: Cocoyl glyceryl solketal
- Skin irritation classification (skin): non-irritating; also recorded: mild dermal irritation
- Eye irritation classification (eye): non-irritating
